Data on seven molecules can be found in ChEMBL document CHEMBL5303304, “EUbOPEN Chemogenomics Library - IncuCyte” (2023).

What all share (type): toxicity, cell-based
For one series, the system named is U2OS. Kind of series: Incucyte cell viability with U2OS. Particulars: human, 10 µM, compound concentration 10 uM.
The subject of the next series is HEK-293T. Kind of series: Incucyte cell viability with HEK293T. The conditions noted are these: human, 10 µM, compound concentration 10 uM.
The test system of a further series is Fibroblast. Kind of series: Incucyte cell viability with human fibroblast. The conditions noted are these: 10 µM, compound concentration 10 uM.
Also: unitless GR value; below 1 slowed growth and below 0 cell loss.

As for `COc1cc(Oc2nc(-c3ccc(NC(=O)C4CCOC4)cc3)nn3c(C)nc(C)c23)cc(OC)c1OC` (stereo unspecified), the “Growth Rate” value in the series with U2OS (6 h, replicate number 1) turned out to be 0.98; with U2OS (12 h, replicate number 2), 0.94; with U2OS (24 h, replicate number 1) it was 0.87; in the series on HEK-293T (24 h, replicate number 1), 0.96; in the series with Fibroblast (0 h, replicate number 2), 0.03; in the series with Fibroblast (12 h, replicate number 2), 0.75.

As for `Cc1ccc(-c2cn3nc(C(=O)NC4(c5ccc(F)cc5)CN(C)C4)c(C(C)C)c3c(=O)[nH]2)cc1C`, the “Growth Rate” value amounted to 0.98 with U2OS (6 h, replicate number 1); 0.9 in the series with U2OS (12 h, replicate number 1); 0.86 in the series with U2OS (12 h, replicate number 2); 0.59 in the series with U2OS (18 h, replicate number 1); 0.74 in the series on U2OS (18 h, replicate number 2); 0.31 with U2OS (24 h, replicate number 1). For the same molecule, the “Growth Rate” value was 0.61 with U2OS (24 h, replicate number 2); 0.66 with HEK-293T (12 h, replicate number 1); 0.19 in the series on HEK-293T (18 h, replicate number 1); 0.21 in the series with HEK-293T (18 h, replicate number 2); 0.07 in the series with HEK-293T (24 h, replicate number 1); 0.09 in the series with HEK-293T (24 h, replicate number 2). Also, the “Growth Rate” value in the series with Fibroblast (0 h, replicate number 1) is -1; in the series on Fibroblast (6 h, replicate number 2), 0.39; in the series on Fibroblast (12 h, replicate number 1), 0.22; in the series on Fibroblast (12 h, replicate number 2), 0.19; in the series with Fibroblast (18 h, replicate number 1) it was 0.16; in the series on Fibroblast (18 h, replicate number 2), 0.26. For the same molecule, the “Growth Rate” value in the series with Fibroblast (24 h, replicate number 1) is listed as 0.16; in the series on Fibroblast (24 h, replicate number 2) it was 0.27.

With `COc1ccccc1[C@@H]1CNCCC12CCN(C(=O)[C@](OC)(c1ccccc1)C(F)(F)F)CC2`, the “Growth Rate” value is given as -0.8 in the series on U2OS (0 h, replicate number 1); 0.59 in the series on U2OS (0 h, replicate number 2); 0.37 in the series on U2OS (6 h, replicate number 1); 0.85 in the series on U2OS (12 h, replicate number 1); 0.73 with U2OS (18 h, replicate number 1); 0.99 with U2OS (18 h, replicate number 2). Moreover, the “Growth Rate” value in the series with U2OS (24 h, replicate number 1) is given as 0.53; in the series on U2OS (24 h, replicate number 2) it was 0.82; with HEK-293T (12 h, replicate number 1) it was 0.43; in the series with HEK-293T (18 h, replicate number 1), 0.28; with HEK-293T (18 h, replicate number 2) it was 0.64; in the series on HEK-293T (24 h, replicate number 1), 0.22. Besides, the “Growth Rate” value was 0.34 in the series with HEK-293T (24 h, replicate number 2); -1 with Fibroblast (0 h, replicate number 1); 0.9 with Fibroblast (6 h, replicate number 1); 0.93 with Fibroblast (12 h, replicate number 1); 0.7 in the series on Fibroblast (12 h, replicate number 2); 0.54 in the series on Fibroblast (18 h, replicate number 1). For the same molecule, the “Growth Rate” value in the series on Fibroblast (18 h, replicate number 2) was 0.97; in the series with Fibroblast (24 h, replicate number 1), 0.63; in the series with Fibroblast (24 h, replicate number 2) it was 0.68.

As to `COc1cc2nc(C)nc(NC3(c4ccccc4)CC3)c2cc1OC`, the “Growth Rate” value with U2OS (6 h, replicate number 1) stood at 0.52; in the series on U2OS (12 h, replicate number 1), 0.94; in the series with U2OS (12 h, replicate number 2), 0.97; in the series on U2OS (18 h, replicate number 1), 0.94; in the series on U2OS (24 h, replicate number 1), 0.86; in the series on HEK-293T (18 h, replicate number 1), 0.87. Besides, the “Growth Rate” value is recorded as 0.93 in the series on HEK-293T (24 h, replicate number 1); 0.11 with Fibroblast (0 h, replicate number 2); 0.99 in the series with Fibroblast (6 h, replicate number 1); 0.66 in the series with Fibroblast (6 h, replicate number 2); 0.99 in the series on Fibroblast (12 h, replicate number 1); 0.7 in the series on Fibroblast (12 h, replicate number 2).

As for `COc1ccc(S(=O)(=O)N2CCOCC2)cc1Nc1ccc2c(n1)N(C1CCN(C)CC1)[C@H](C)C(=O)N2C`, the “Growth Rate” value with U2OS (0 h, replicate number 2) is 0.58; in the series on U2OS (12 h, replicate number 2), 0.86; with U2OS (18 h, replicate number 1), 0.83; with U2OS (18 h, replicate number 2), 0.79; in the series with U2OS (24 h, replicate number 1) it was 0.45; in the series with U2OS (24 h, replicate number 2) it was 0.72. Moreover, the “Growth Rate” value in the series on HEK-293T (18 h, replicate number 1) is listed as 0.97; in the series on HEK-293T (24 h, replicate number 1), 0.66; in the series with HEK-293T (24 h, replicate number 2), 0.62; with Fibroblast (0 h, replicate number 2), 0.55; with Fibroblast (6 h, replicate number 1), 0.47; in the series with Fibroblast (6 h, replicate number 2), -0.45. The “Growth Rate” value with Fibroblast (12 h, replicate number 1) came out at 0.73; with Fibroblast (12 h, replicate number 2), 0.26; in the series on Fibroblast (18 h, replicate number 1) it was 0.88; with Fibroblast (18 h, replicate number 2), 0.48; in the series with Fibroblast (24 h, replicate number 1), 0.86; in the series with Fibroblast (24 h, replicate number 2), 0.41.

Turning to `COc1cc(CN(CCN)C(=O)N[C@@H](C)c2ccccc2)ccc1OCc1ccccc1.Cl`, the “Growth Rate” value with U2OS (0 h, replicate number 1) was -0.64; with U2OS (0 h, replicate number 2) it was -0.26; in the series on U2OS (6 h, replicate number 1), 0.64; with U2OS (6 h, replicate number 2) it was 0.82; in the series with U2OS (12 h, replicate number 1) it was 0.69; in the series with U2OS (18 h, replicate number 1) it was 0.98. Also, the “Growth Rate” value with U2OS (18 h, replicate number 2) was found to be 0.92; in the series on U2OS (24 h, replicate number 1) it was 0.79; with U2OS (24 h, replicate number 2), 1; with HEK-293T (12 h, replicate number 2), 0.77; with HEK-293T (18 h, replicate number 2), 0.81; in the series on HEK-293T (24 h, replicate number 2), 0.74. The “Growth Rate” value with Fibroblast (0 h, replicate number 1) is listed as -1; in the series with Fibroblast (6 h, replicate number 1) it was 0.29; in the series on Fibroblast (12 h, replicate number 1) it was 0.94; with Fibroblast (12 h, replicate number 2) it was 0.41; in the series with Fibroblast (18 h, replicate number 1), 0.87; with Fibroblast (18 h, replicate number 2), 0.71. In addition, the “Growth Rate” value in the series with Fibroblast (24 h, replicate number 1) is 0.72; in the series on Fibroblast (24 h, replicate number 2), 0.83.

Regarding `COc1ccc(S(=O)(=O)N2CCOCC2)cc1Nc1ccc2c(n1)N(C1CCOCC1)[C@H](C)C(=O)N2C`, the “Growth Rate” value is 0.7 with U2OS (24 h, replicate number 1); 0.96 with U2OS (24 h, replicate number 2); 0.7 in the series on HEK-293T (24 h, replicate number 1); 0.81 with HEK-293T (24 h, replicate number 2); -0.13 with Fibroblast (0 h, replicate number 2); -0.44 in the series with Fibroblast (6 h, replicate number 2). Moreover, the “Growth Rate” value in the series with Fibroblast (12 h, replicate number 2) came to 0.55; in the series on Fibroblast (18 h, replicate number 2), 0.25; in the series on Fibroblast (24 h, replicate number 2), 0.36.
